# What was measured:
# [1] = test system: transfected cell lines and tumorous cell lines; experiment: Short-term cytotoxicity check (Presto Blue cell viability assay); format: cell-based; conditions: concentrations tested (100 µmol/L), data not shown
# OCT2 = target: T1, OCT2 (Homo sapiens, UniProt O15244); conditions: MDCKII-OCT2
# T1 sequence (O15244 1-555): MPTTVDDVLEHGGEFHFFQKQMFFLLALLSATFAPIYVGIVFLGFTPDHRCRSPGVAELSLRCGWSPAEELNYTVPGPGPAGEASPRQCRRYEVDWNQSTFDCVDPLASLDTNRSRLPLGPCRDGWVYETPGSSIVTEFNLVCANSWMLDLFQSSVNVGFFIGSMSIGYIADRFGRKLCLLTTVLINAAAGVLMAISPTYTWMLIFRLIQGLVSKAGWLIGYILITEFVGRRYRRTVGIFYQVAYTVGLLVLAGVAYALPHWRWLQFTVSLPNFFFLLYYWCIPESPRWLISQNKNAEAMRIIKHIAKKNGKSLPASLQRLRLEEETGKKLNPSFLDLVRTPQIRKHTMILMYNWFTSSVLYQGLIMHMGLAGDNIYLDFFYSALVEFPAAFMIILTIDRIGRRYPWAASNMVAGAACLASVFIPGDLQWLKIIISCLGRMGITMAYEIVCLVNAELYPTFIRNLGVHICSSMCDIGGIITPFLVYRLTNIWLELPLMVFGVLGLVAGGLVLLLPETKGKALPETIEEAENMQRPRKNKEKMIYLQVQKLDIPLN
# Protocol: (§1) Cellular uptake studies: For all transport studies, cells were seeded in 24-well plates and incubated in a full growth medium at an initial density of 200,000 cells/well for 3 days. Before starting each transport experiment, cells were washed with a pre-warmed (37 °C) incubation buffer [64]. […] Protein concentration of whole cell lysate was determined to quantify cell density after each experiment using the BCA assay according to the manufacturer’s instructions (Pierce, Rockford, IL, USA).
# Statistical evaluation: All experiments were performed at least three times unless otherwise noted. The OATP1A2*1–*3 and OCT1-3 net uptake was obtained by subtracting the uptake into wild-type cells from that of the transporter-transfected cells. Km and Vmax were assessed using Prism 5.01 (GraphPad Software, San Diego, CA, USA). The differences in the doxorubcin uptake in OATP1A2*1–*3 and in OCT1-3 transfected cells were adjusted to the membranous transporter protein levels in the whole cell lysate. Km and Vmax are presented as arithmetic means ± standard deviation.
# OATP1A2*1 = target: T2, OATP1A2*1 (Homo sapiens, UniProt P46721); experiment: in vitro
# T2 sequence (P46721 1-670): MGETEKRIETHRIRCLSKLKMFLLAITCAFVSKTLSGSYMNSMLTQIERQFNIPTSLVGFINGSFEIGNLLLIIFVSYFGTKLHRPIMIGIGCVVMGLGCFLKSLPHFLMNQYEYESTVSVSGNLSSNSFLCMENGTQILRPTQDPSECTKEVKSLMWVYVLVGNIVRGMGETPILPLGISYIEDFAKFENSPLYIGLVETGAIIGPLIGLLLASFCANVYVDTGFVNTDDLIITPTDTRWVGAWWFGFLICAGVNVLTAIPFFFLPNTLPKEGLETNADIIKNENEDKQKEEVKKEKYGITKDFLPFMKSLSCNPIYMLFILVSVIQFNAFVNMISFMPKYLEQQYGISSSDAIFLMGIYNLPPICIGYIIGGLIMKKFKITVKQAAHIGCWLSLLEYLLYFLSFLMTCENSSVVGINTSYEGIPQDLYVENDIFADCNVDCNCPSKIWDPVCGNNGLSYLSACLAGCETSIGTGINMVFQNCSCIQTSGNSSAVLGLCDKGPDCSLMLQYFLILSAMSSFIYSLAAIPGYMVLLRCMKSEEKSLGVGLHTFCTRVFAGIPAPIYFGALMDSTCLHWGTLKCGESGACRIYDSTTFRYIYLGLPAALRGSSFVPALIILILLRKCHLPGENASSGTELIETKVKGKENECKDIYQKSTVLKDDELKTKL
# Protocol: as §1
# Protein abundance of OATP1A2*1–*3 and OCT1–3 were measured by mass spectrometry-based targeted proteomics using a validated LC-MS/MS method as recently described [65].
# 200 μL of each cell lysate sample was mixed with 25 μL internal standard (5 µg/mL daunorubicin), 25 μL citric acid (1%), and 400 μL ice-cold acetonitrile for protein precipitation. […] The clear supernatant was transferred to HPLC vials. The measurement and quantitative evaluation were carried out using the LC-MS/MS system QTRAP 4000® (AB SCIEX, Darmstadt, Germany) and the Software Analyst® 1.4 (Applied Biosystems, Darmstadt, Germany).
# Statistical evaluation: All experiments were performed at least three times unless otherwise noted. The OATP1A2*1–*3 and OCT1-3 net uptake was obtained by subtracting the uptake into wild-type cells from that of the transporter-transfected cells. […]
compound,measurement,setting,value
"COc1cccc2c1C(=O)c1c(O)c3c(c(O)c1C2=O)C[C@@](O)(C(=O)CO)C[C@@H]3O[C@H]1C[C@H](N)[C@H](O)[C@H](C)O1 [doxorubicin, Doxorubicin]",cytotoxic effects within one hour,[1],no cytotoxic effects
same,Vmax,"OCT2; doxorubicin 0–100 µmol/L, 3 min, mean ± SD",37.8 ± 11.1 pmol/mg/min
same,saturation of concentration-dependent OCT2-mediated uptake,"OCT2; incubation time 3 min, up to 100 µmol/L",not saturated
same,Km at 5 min,OATP1A2*1; HEK293 cells stably expressing OATP1A2*1,7.49 ± 3.41 µM
same,microsomal CLint at 5 min,OATP1A2*1; other cell line,4.71 ± 1.53 µL/min/mg

# From publication PMC8745601 (International Journal of Molecular Sciences, 2021)
